Test results published in the NIST ThermoML archive (doi:10.1021/acs.jced.5b00922).
Numbers after ± are expanded uncertainties.

Experiments:
[1] = Liquid; for viscosity: Capillary tube (Ostwald / Ubbelohde) method; for mass density: Pycnometric method
[2] = wn = mass fraction of the nth substance listed; settings: 100 kPa, Liquid; for viscosity: Capillary tube (Ostwald / Ubbelohde) method; for mass density: Pycnometric method
[3] = mn = molality of the nth substance listed, in mol/kg; settings: 100 kPa, Liquid, m1 = 4.416; for viscosity: Capillary tube (Ostwald / Ubbelohde) method; for mass density: Pycnometric method; for binary diffusion coefficient: absorption column

`CN(CCO)CCO` [N-methyldiethanolamine] showed a viscosity ([1]; 298 K, 100 kPa) of 77.6 ± 1.9 mPa·s, a mass density ([1]; 298 K, 100 kPa) of 1036.7 ± 4.8 kg/m3 and a viscosity ([1]; 308 K, 100 kPa) of 44.33 ± 1.2 mPa·s. It also gave a mass density ([1]; 308 K, 100 kPa) of 1029.4 ± 4.8 kg/m3, a viscosity ([1]; 323 K, 100 kPa) of 22.3 ± 0.78 mPa·s and a mass density ([1]; 323 K, 100 kPa) of 1018.5 ± 4.9 kg/m3.
`CN(CCO)CCO` [N-methyldiethanolamine] + O showed a viscosity ([2]; 298 K, w1 = 0.1) of 1.295 ± 0.1 mPa·s, a viscosity ([2]; 298 K, w1 = 0.2) of 1.925 ± 0.11 mPa·s and a viscosity ([2]; 298 K, w1 = 0.3) of 3.031 ± 0.11 mPa·s. It also gave a viscosity ([2]; 298 K, w1 = 1) of 77.6 ± 1.9 mPa·s, a mass density ([2]; 298 K, w1 = 0.1) of 1005.7 ± 4.7 kg/m3 and a mass density ([2]; 298 K, w1 = 0.2) of 1015 ± 4.7 kg/m3. For the same compound, the mass density ([2]; 298 K, w1 = 0.3) was 1024.6 ± 4.7 kg/m3, the mass density ([2]; 298 K, w1 = 1) was 1036.7 ± 4.8 kg/m3 and the viscosity ([2]; 308 K, w1 = 0.1) was 1.007 ± 0.1 mPa·s. The viscosity ([2]; 308 K, w1 = 0.2) was 1.468 ± 0.1 mPa·s, the viscosity ([2]; 308 K, w1 = 0.3) was 2.251 ± 0.11 mPa·s and the viscosity ([2]; 308 K, w1 = 1) was 44.33 ± 1.2 mPa·s. The mass density ([2]; 308 K, w1 = 0.1) was 1001.9 ± 4.7 kg/m3, the mass density ([2]; 308 K, w1 = 0.2) was 1010.9 ± 4.7 kg/m3 and the mass density ([2]; 308 K, w1 = 0.3) was 1020.2 ± 4.7 kg/m3. For the same compound, the mass density ([2]; 308 K, w1 = 1) was 1029.4 ± 4.8 kg/m3, the viscosity ([2]; 323 K, w1 = 0.1) was 0.748 ± 0.1 mPa·s and the viscosity ([2]; 323 K, w1 = 0.2) was 1.033 ± 0.1 mPa·s. The viscosity ([2]; 323 K, w1 = 0.3) was 1.491 ± 0.11 mPa·s, the viscosity ([2]; 323 K, w1 = 1) was 22.3 ± 0.78 mPa·s and the mass density ([2]; 323 K, w1 = 0.1) was 995.9 ± 4.7 kg/m3. It also gave a mass density ([2]; 323 K, w1 = 0.2) of 1003.4 ± 4.7 kg/m3, a mass density ([2]; 323 K, w1 = 0.3) of 1012 ± 4.7 kg/m3 and a mass density ([2]; 323 K, w1 = 1) of 1018.5 ± 4.9 kg/m3. For the same compound, the viscosity ([3]; 298 K) was 3.851 ± 0.091 mPa·s, the mass density ([3]; 298 K) was 1036.91 ± 4.5 kg/m3 and the binary diffusion coefficient ([3]; 298 K) was 8.2e-10 m2/s. It also gave a viscosity ([3]; 303 K) of 3.22 ± 0.091 mPa·s, a mass density ([3]; 303 K) of 1034.27 ± 4.4 kg/m3 and a binary diffusion coefficient ([3]; 303 K) of 9.5e-10 m2/s. It also gave a viscosity ([3]; 308 K) of 2.7 ± 0.086 mPa·s, a mass density ([3]; 308 K) of 1030.94 ± 4.5 kg/m3 and a binary diffusion coefficient ([3]; 308 K) of 1.09e-09 m2/s. It also gave a viscosity ([3]; 313 K) of 2.215 ± 0.08 mPa·s, a mass density ([3]; 313 K) of 1027.61 ± 4.5 kg/m3 and a binary diffusion coefficient ([3]; 313 K) of 1.24e-09 m2/s. The viscosity ([3]; 318 K) was 1.89 ± 0.075 mPa·s, the mass density ([3]; 318 K) was 1024.05 ± 4.5 kg/m3 and the binary diffusion coefficient ([3]; 318 K) was 1.37e-09 m2/s. For the same compound, the viscosity ([3]; 323 K) was 1.62 ± 0.07 mPa·s, the mass density ([3]; 323 K) was 1020.68 ± 4.5 kg/m3 and the binary diffusion coefficient ([3]; 323 K) was 1.54e-09 m2/s.
`NCCCNCCCN` [bis(3-aminopropyl)amine] gave a viscosity ([1]; 298 K, 101.33 kPa) of 8.51 ± 0.15 mPa·s, a mass density ([1]; 298 K, 101.33 kPa) of 927.36 ± 4.2 kg/m3 and a viscosity ([1]; 303 K, 101.33 kPa) of 7.04 ± 0.14 mPa·s. For the same compound, the mass density ([1]; 303 K, 101.33 kPa) was 923.34 ± 4.2 kg/m3, the viscosity ([1]; 308 K, 101.33 kPa) was 5.92 ± 0.13 mPa·s and the mass density ([1]; 308 K, 101.33 kPa) was 919.32 ± 4.2 kg/m3. It also gave a viscosity ([1]; 313 K, 101.33 kPa) of 5.05 ± 0.13 mPa·s, a mass density ([1]; 313 K, 101.33 kPa) of 915.28 ± 4.2 kg/m3 and a viscosity ([1]; 318 K, 101.33 kPa) of 4.62 ± 0.12 mPa·s. The mass density ([1]; 318 K, 101.33 kPa) was 911.18 ± 4.2 kg/m3, the viscosity ([1]; 323 K, 101.33 kPa) was 3.99 ± 0.12 mPa·s and the mass density ([1]; 323 K, 101.33 kPa) was 906.97 ± 4.2 kg/m3.
